Source: US11357809B2, “Herbal preparation for stimulation of hair growth, control of hair fall, dandruff and infections thereof using Ageratum spp” (GE Nutrients, Inc., priority 2019, dated 2022)
Several values for one entry are separate records, joined by “and”; a condition that tells them apart may be missing. Identical values can stand only once.

Assays:
5-alpha-reductase enzyme = settings: constituents of Ageratum spp. extracts; no test described; cited from earlier work
bovine corneas = experiment: Bovine Corneal Opacity and Permeability assay (ocular irritation)
Excerpt: SUMMARY: This test was designed to assess the ocular irritation potential of a non-surfactant, liquid article such as Ageratum conyzoides extract. The test is a modification of that described by Gautheron, et. al. (“Bovine Corneal Opacity and Permeability Test: An In Vitro Assay of Ocular Irritancy” Fund. Appl. Toxicol. 18:442-449 (1992)), and Vanparys, et al. (“Evaluation of the bovine opacity-permeability assay as an in vitro alternative to the Draize eye irritation test” Toxicol. In Vitro 7:471-76 (1994)).
Bovine eyes were obtained by this facility from a local abattoir. The eyes were transported in an appropriate container containing Hank's balanced salt solution (HBSS, Sigma Chemical Co., H-1387). Transportation and storage of the eyes was at approximately 21° C. (70° F.). The eyes were used the day of their harvest and transport.
Upon test initiation, the iris and the lens were removed and the corneas were placed in the bovine cornea holders. The endothelial surface was applied to the O-ring of the posterior part of the holder. The anterior part of the holder was placed against the epithelial side of the cornea. The two sides of the holder were screwed together. The bovine holders' components were then filled with pre-warmed Eagle's Minimum Essential Media (EM EM, Sigma Chemical Co., M-3024) with 1% Fetal Bovine Serum (FBS, American Type Culture Collection) at approximately 32° C.±2° C. (90° F.±4° F.). The posterior chamber was filled first. The corneas were incubated for approximately one hour, in a 32° C.±2° C. (90° F.±4° F.) water bath. This allowed for the pre-equilibration of the corneas to the external medium.
After the pre-equilibration period, media from both of the chamber of the cassettes was aspirated, with the anterior chamber being aspirated first. Each chamber was then refilled with fresh EMEM, with the posterior chamber being filled first. Initial opacity readings were taken and recorded. Corneas with initial readings greater than […] were not used. Three corneas were assigned to each test and control article. The corneas with the lowest readings were used as the negative controls.
The test article and the positive control article (ethanol) and the negative control article (physiological saline) were each tested at 100%.
A volume of 0.75 milliliters of the appropriate article, pre-warmed to 32° C.±2° C. (90° F.±4° F.), was introduced into the anterior chamber of the appropriate cassettes. The anterior chambers were then plugged and turned to a horizontal position. They were then rotated slightly, so that the article uniformly covered each cornea. The cassettes were incubated for 10 minutes at 32° C.±2° C. (90° F.±4° F.), in a water bath.
The anterior chambers of each cassette were then refilled with fresh EMEM via syringe. After refilling, the chambers were again plugged. All corneas were then incubated for 2 hours at approximately 32° C.±2° C. (90° F.±4° F.), in a water bath.
After this 2 hour incubation period, all compartments were emptied and refilled with fresh EMEM. Each holder was individually placed in the “positive” compartment, while the “negative” compartment was left empty. The glass portion of each holder was dried prior to the reading. The opacity of each cornea was taken and recorded. The corneas were also observed grossly. Any unusual findings, such as opaque spots, were recorded.
After the opacity readings were completed, the medium was removed from the anterior chambers. Either a suitable pipette tip or a flat ended needle was used for this procedure. One milliliter of 6 mg/ml fluorescein (Sodium Fluorescein, Sigma-Aldrich, F-637 in Dulbecco's Phosphate Buffered Saline (DPBS Sigma-Aldrich) pH approximately 7.5) solution was added to each of the anterior chambers. A micro pipette was used for this procedure.
After the fluorescein solution was added to each anterior compartment, the compartments were plugged. The cassettes were then incubated, in a horizontal position, for 90 minutes at 32° C.±2° C.

[1] = individual cornea, negative control average subtracted
[2] = mean of three corneas, article at 100%

CC/C=C\C/C=C\C/C=C\CCCCCCCC(=O)O [Alpha-linolenic acid]
identified as 5-alpha-reductase inhibitor (5-alpha-reductase enzyme): 5-alpha-reductase inhibitors

CCCCCCCCCCCCCCCC(=O)O [Hexadecanoic acid]
identified as 5-alpha-reductase inhibitor (5-alpha-reductase enzyme): 5-alpha-reductase inhibitors

O=C1CCc2ccccc2O1 [Hydrocoumarin]
identified as 5-alpha-reductase inhibitor (5-alpha-reductase enzyme): 5-alpha-reductase inhibitors

CCO [+Control, Ethanol]
Difference (terminal minus initial opacity) (bovine corneas; individual cornea, article at 100%): 51 and 45 and 54
Terminal Opacity (bovine corneas; individual cornea, article at 100%, 10 minute exposure, 2 hour incubation): 56 and 46 and 55
Initial Opacity (bovine corneas; individual cornea, baseline reading before exposure): 2 and 1 (2×)
Optical Density490 (bovine corneas; individual cornea, fluorescein permeability, 90 minutes): 1.239 and 0.662 and 1.663
Corrected Corneal Opacity (bovine corneas; [1]): 48.3 and 42.3 and 51.3
Corrected OD490 (bovine corneas; [1]): 1.233 and 0.656 and 1.657
In Vitro Score (bovine corneas; individual cornea, Corrected Corneal Opacity + 15 x Corrected OD490): 65.8 and 52.5 and 76.2
Mean Corrected OD490 (bovine corneas; mean of three corneas): 1.182
Average In Vitro Score (bovine corneas; [2]): 65.0
Mean Corrected Corneal Opacity (bovine corneas; [2]): 47.3

CCCCC/C=C\C/C=C\CCCCCCCC(=O)O [9,12-octadecadienoic acid (Z,Z)-]
identified as 5-alpha-reductase inhibitor (5-alpha-reductase enzyme): 5-alpha-reductase inhibitors
